Data: PMC5513211, “PA-6 inhibits inward rectifier currents carried by V93I and D172N gain-of-function KIR2.1 channels, but increases channel protein expression” (Journal of Biomedical Science, 2017)
Positions count from the first letter of the chain named. Like-named read-outs stand apart in the source and are kept apart here. Each block holds one molecule with its values, some of them ahead of it.

How the values were obtained:
Kv7.1 channel, V307L = settings: cited from earlier work
WT KIR2.1 [1] = molecular target: T1, WT KIR2.1 (Homo sapiens, UniProt P63252); experiment: Inside-out patch clamp, ramp protocol, WT KIR2.1 currents; type: cell-based; settings: inside-out mode, HEK293T, 21 °C
T1 construct: expressed in transfected cells; host or cells: HEK293T
T1 sequence (P63252 1-427): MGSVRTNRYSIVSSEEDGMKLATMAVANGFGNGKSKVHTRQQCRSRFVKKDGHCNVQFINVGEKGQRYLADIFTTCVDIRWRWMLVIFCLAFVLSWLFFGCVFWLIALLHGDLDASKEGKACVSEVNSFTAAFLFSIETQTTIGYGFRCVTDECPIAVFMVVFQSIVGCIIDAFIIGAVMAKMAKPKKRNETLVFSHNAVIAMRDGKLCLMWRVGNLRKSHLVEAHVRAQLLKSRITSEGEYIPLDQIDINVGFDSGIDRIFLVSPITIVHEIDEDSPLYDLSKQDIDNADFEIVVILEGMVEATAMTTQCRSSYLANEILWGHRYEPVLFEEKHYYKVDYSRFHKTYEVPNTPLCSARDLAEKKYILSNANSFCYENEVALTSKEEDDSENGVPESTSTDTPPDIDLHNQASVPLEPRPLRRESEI
Text: (§1) Mutations V93I and D172N were engineered into a human KCNJ2-pcDNA3 expression construct, using the QuikChange II XL Site-Directed Mutagenesis Kit (Stratagene, La Jolla, CA) and custom designed primers. The presence of the introduced mutations was confirmed by Sanger sequencing.
(§2) HEK293T cells were transfected with WT, V93I or D172N constructs together with a GFP expression construct to enable detection of transfected cells. Inside-out patch clamp measurements were made using a HEKA EPC-10 Double Plus amplifier controlled by PatchMaster 2.10 software (HEKA, Lambrecht/Pfalz, Germany) at 21 °C. To record WT, V93I and D172N KIR2.1 currents, inside-out patch-clamp measurements were performed using a ramp protocol ranging from −100 to +100 mV in 5 s from a holding potential of −40 mV. Excised patches were placed in close proximity to the inflow region of the perfusion chamber. Bath solution contained 125 mM KCl, 4 mM EDTA (2K), 7.2 mM K2HPO4, 2.8 mM KH2PO4, pH 7.20/KOH. Pipette solution contained 145 mM KCl, 1 mM CaCl2, 5 mM HEPES, pH 7.40/KOH. Measurements were started following washout of polyamines/Mg^2+ from the channel pore observed by the disappearance of current rectification. For IC50 curves, fractional block at −80 and +50 mV was determined by dividing current levels obtained with PA-6 containing solutions by current levels of control traces recorded in the absence of PA-6.

V93I KIR2.1 [2] = molecular target: T2, V93I KIR2.1 (Homo sapiens, UniProt P63252, V93I); experiment: Inside-out patch clamp, ramp protocol, V93I KIR2.1 currents; type: cell-based; settings: inside-out mode, HEK293T, 21 °C
T2 construct: expressed in transfected cells; host or cells: HEK293T
T2 sequence (P63252 1-427 V93I): T1 sequence (P63252 1-427) with V93I
Text: as §1, §2

D172N KIR2.1 [3] = molecular target: T3, D172N KIR2.1 (Homo sapiens, UniProt P63252, D172N); experiment: Inside-out patch clamp, ramp protocol, D172N KIR2.1 currents; type: cell-based; settings: inside-out mode; for IC50: HEK293T, 21 °C
T3 construct: expressed in transfected cells; host or cells: HEK293T
T3 sequence (P63252 1-427 D172N): T1 sequence (P63252 1-427) with D172N
Text: as §1, §2

WT KIR2.1 [4] = molecular target: T1, WT KIR2.1; experiment: Whole cell patch clamp, WT KIR2.1 currents; type: cell-based; settings: whole cell mode
Description: as §1
(§3) Whole cell patch clamp measurements were done as described before using an AxoPatch 200B amplifier controlled by pClamp9 software (Molecular devices, Sunnyvale, CA, USA) at 21 °C. Whole cell IKIR2.1 measurements were performed by applying 1 s test pulses ranging between −120 and +30 mV, in 10 mV increments, from a holding potential of −40 mV, and with series resistance compensation of at least 70%. Steady state current at the end of the pulse was normalized to cell capacitance and plotted versus test potential (corrected for liquid junction potential). Extracellular solution contained 140 mM NaCl, 5 mM KCl, 1 mM CaCl2, 1 mM MgCl2, 6 mM glucose, 17.5 mM NaHCO3, 15 mM HEPES, pH 7.4/NaOH. Pipette solution contained 125 mM potassium gluconate, 10 mM KCl, 5 mM HEPES, 5 mM EGTA, 2 mM MgCl2, 0.6 mM CaCl2, 4 mM Na2ATP, pH 7.20/KOH.

V93I KIR2.1 [5] = molecular target: T2, V93I KIR2.1; experiment: Whole cell patch clamp, V93I KIR2.1 currents; type: cell-based; settings: whole cell mode
Description: as §1, §3

D172N KIR2.1 [6] = molecular target: T3, D172N KIR2.1; experiment: Whole cell patch clamp, D172N KIR2.1 currents; type: cell-based; settings: whole cell mode
Description: as §1, §3

WT KIR2.1 [7] = molecular target: T1, WT KIR2.1; experiment: Western blot of KIR2.1 expression, transiently transfected HEK293T cells, WT; type: cell-based; settings: 24 h
Description: (§4) HEK293T cells were grown in 60 mm culture dishes containing 3 mL DMEM supplemented with 10% FCS, L-Glutamine and Pen-Strep, and transfected using linear polyethylenimine (PEI) (PolysciencesInc, Eppelheim, Germany) as described earlier. Cell lysates were prepared in buffer D (20 mM HEPES, 125 mM NaCl, 10% glycerol, 1 mM EDTA, 1 mM EGTA, 1 mM dithiothreitol, and 1% Triton X-100, pH 7.6, supplemented with 1 mM PMSF and 10 μg/mL aprotinin). 20 μg protein lysate was separated by 10% SDS-PAGE and blotted onto nitrocellulose membrane. Ponceau staining was used to reveal equal protein loading and subsequent quantification. Blots were blocked with 5% (v/v) […] in TBST (20 mM Tris-HCl pH 8.0, 150 mM NaCl, 0.05% (v/v) Tween-20) for 1 h at room temperature. KIR2.1 WT and mutants were detected by N-terminal KIR2.1 antibody (Santa Cruz Biotechnology, Dallas Tx, USA, cat. No. sc-18708) and peroxidase-conjugated donkey anti-goat secondary antibody (Jackson ImmunoResearch, West Grove, PA, cat. No. 705-035-003) followed by ECL detection procedure (GE Healthcare, Hoevelaken, The Netherlands). For quantification purposes, untransfected HEK293T cells were used as blank and protein levels were normalized to ponceau staining levels. Differences between group averages were tested by using a one-way ANOVA with a Bonferroni’s post-hoc test.

V93I KIR2.1 [8] = molecular target: T2, V93I KIR2.1; experiment: Western blot of KIR2.1 expression, transiently transfected HEK293T cells, V93I; type: cell-based; settings: 24 h
Description: as §4

D172N KIR2.1 [9] = molecular target: T3, D172N KIR2.1; experiment: Western blot of KIR2.1 expression, transiently transfected HEK293T cells, D172N; type: cell-based; settings: 24 h
Description: as §4

[10] = test system: WT, V93I and D172N KIR2.1 channels; experiment: Confocal immunofluorescence microscopy of KIR2.1 localization in HEK293T cells; type: cell-based, human; settings: 24 h, WT or mutant
Description: HEK293T and MES-1 cells were cultured on pre-coated (0.1% gelatin) glass coverslips and transfected using Lipofectamin (Invitrogen, Breda, The Netherlands). Cell fixation, immunolabeling and imaging were performed exactly as described earlier. Antibodies used were anti-KIR2.l (1:250; Santa Cruz Biotechnology, cat. no. sc-18708) and anti-Pan Cadherin (1:800, Sigma-Aldrich, St. Louis MO, USA, cat. No. C1821). HEK293T cells were imaged by confocal microscopy using a Zeiss LSM 700 confocal microscope (Carl Zeiss Microscopy GmbH, Germany) equipped with a 63× oil immersion objective (NA 1.4). Excitation was performed with an air-cooled Argon ion laser (LASOS, RMC 7812Z, 488 nm) for GFP and a HeNE (LASOS, SAN 7450A, 543 nm) laser for DyLight. MES-1 cells were imaged using a conventional Nikon eclipse 80i light microscopy equipped with a 40× objective (NA 0.75).

[11] = test system: WT, V93I and D172N KIR2.1 channels; experiment: Immunofluorescence microscopy of KIR2.1 localization in MES-1 cells; type: cell-based, human; settings: 5 μM, 24 h
Description: HEK293T and MES-1 cells were cultured on pre-coated (0.1% gelatin) glass coverslips and transfected using Lipofectamin (Invitrogen, Breda, The Netherlands). Cell fixation, immunolabeling and imaging were performed exactly as described earlier. […] HEK293T cells were imaged by confocal microscopy using a Zeiss LSM 700 confocal microscope (Carl Zeiss Microscopy GmbH, Germany) equipped with a 63× oil immersion objective (NA 1.4). […] MES-1 cells were imaged using a conventional Nikon eclipse 80i light microscopy equipped with a 40× objective (NA 0.75).

IK1 / KIR2.1 ion channel = test system: IK1 / KIR2.1 ion channel; design: method as in PMID 23625347; settings: inside-out patch clamp methodology; read-out: IC50, IK1 inhibition; cited from earlier work
WT KIR2.1 [12] = settings: 10 μM, cells stably expressing GFP-tagged KIR2.1; cited from earlier work
WT KIR2.1 [13] = settings: read-out: IC50 (sensitivity for chloroquine); whole cell mode; cited from earlier work
D172N KIR2.1 [14] = settings: read-out: IC50 (sensitivity for chloroquine); whole cell mode; cited from earlier work
[15] = test system: Kv11.1 (hERG) channel, WT and N558K; settings: N558K less sensitive than WT; cited from earlier work
[16] = at +50 mV, read-out: IC50, outward current
[17] = at −80 mV, read-out: IC50, inward current
[18] = at −50 mV, read-out: Inhibition of outward IK1
[19] = at −110 mV, read-out: Inhibition of inward IK1

SMILES: CCS(=O)(=O)N(C)[C@H]1c2cc(C#N)ccc2OC(C)(C)[C@@H]1O [Chromanol293B]
- Increase of IC50 value by V307L mutation (Kv7.1 channel, V307L; V307L versus WT Kv7.1): 7 fold

- IC50 (WT KIR2.1 [1]; [16]): 0.0355 µM
- IC50 (WT KIR2.1 [1]; [17]): 0.0529 µM
- IC50 (V93I KIR2.1 [2]; [16]): 0.0436 µM
- IC50 (V93I KIR2.1 [2]; [17]): 0.058 µM
- IC50 (D172N KIR2.1 [3]; [16]): 0.129 µM
- IC50 (D172N KIR2.1 [3]; [17]): 0.109 µM
- inhibition at 1 µM (WT KIR2.1 [4]; [18]): 28 ± 36%
- inhibition at 1 µM (WT KIR2.1 [4]; [19]): 30 ± 16%
- inhibition at 3 µM (WT KIR2.1 [4]; [18]): 94 ± 6%
- inhibition at 3 µM (WT KIR2.1 [4]; [19]): 68 ± 15%
- IC50 (WT KIR2.1 [4]): 1 to 3 µM
- inhibition at 1 µM (V93I KIR2.1 [5]; [18]): 18 ± 20%
- inhibition at 1 µM (V93I KIR2.1 [5]; [19]): 28 ± 14%
- inhibition at 3 µM (V93I KIR2.1 [5]; [18]): 77 ± 29%
- inhibition at 3 µM (V93I KIR2.1 [5]; [19]): 64 ± 4%
- IC50 (V93I KIR2.1 [5]): 1 to 3 µM
- inhibition at 1 µM (D172N KIR2.1 [6]; [18]): 10 ± 6%
- inhibition at 1 µM (D172N KIR2.1 [6]; [19]): 30 ± 10%
- inhibition at 3 µM (D172N KIR2.1 [6]; [18]): 86 ± 7%
- inhibition at 3 µM (D172N KIR2.1 [6]; [19]): 83 ± 1%
- IC50 (D172N KIR2.1 [6]): 1 to 3 µM
- Increase of KIR2.1 expression level (WT KIR2.1 [7]; 5 μM): 6.3 ± 1.5 fold
- Increase of KIR2.1 expression level (V93I KIR2.1 [8]; 5 μM): 3.9 ± 0.9 fold
- Increase of KIR2.1 expression level (D172N KIR2.1 [9]; 5 μM): 4.8 ± 2.0 fold
SMILES: N=C(Nc1ccc(OCCCCCOc2ccc(NC(=N)c3ccccc3)cc2)cc1)c1ccccc1 [PA-6]
- Sensitivity of D172N channels relative to WT and V93I (D172N KIR2.1 [3]): approximately two to three fold less sensitive
- Effect on KIR2.1 expression level at lower concentrations (WT KIR2.1 [7]; 0.2 and 1 μM): did not result in significant increased expression
- Effect on KIR2.1 expression level at lower concentrations (V93I KIR2.1 [8]; 0.2 and 1 μM): did not result in significant increased expression
- Effect on KIR2.1 expression level at lower concentrations (D172N KIR2.1 [9]; 0.2 and 1 μM): did not result in significant increased expression
- Subcellular location of KIR2.1 channels ([10]; 1 μM): induced an intracellular increase of the channel proteins in small aggregates
- Subcellular location of KIR2.1 channels ([10]; 5 μM): further increased the level of intracellular accumulation
- Subcellular location of KIR2.1 channels [11]: resulted in intracellular accumulation
- IC50 (IK1 / KIR2.1 ion channel): 0.014 µM
- Effect on WT KIR2.1 expression (WT KIR2.1 [12]): able to enhance expression of WT KIR2.1

SMILES: CCN(CC)CCCC(C)Nc1ccnc2cc(Cl)ccc12 (centres unmarked) [chloroquine]
- IC50 (WT KIR2.1 [13]): 1.4 to 2.4 µM
- IC50 (D172N KIR2.1 [14]): 1.2 to 3.3 µM

SMILES: CC[C@H]1CN2CC[C@H]1C[C@@H]2[C@@H](O)c1ccnc2ccc(OC)cc12 [hydroquinidine]
- Difference in IC50 values for WT and N558K Kv11.1 channels [15]: 3.5 fold

SMILES: OC(c1cc(C(F)(F)F)nc2c(C(F)(F)F)cccc12)C1CCCCN1 (centres unmarked) [mefloquine]
- Sensitivity of V307L Kv7.1 versus WT variant (Kv7.1 channel, V307L): equally sensitive
